According to ChEMBL document CHEMBL2074288 (Eur J Pharmacol, 2004):

Experiments:
[1] = biological target: T1, Organic anion transporter 3 (Homo sapiens, UniProt Q8TCC7); test: TP_TRANSPORTER: inhibition of E1S uptake in OAT3 expressing oocytes
T1 sequence (Q8TCC7 whole entry): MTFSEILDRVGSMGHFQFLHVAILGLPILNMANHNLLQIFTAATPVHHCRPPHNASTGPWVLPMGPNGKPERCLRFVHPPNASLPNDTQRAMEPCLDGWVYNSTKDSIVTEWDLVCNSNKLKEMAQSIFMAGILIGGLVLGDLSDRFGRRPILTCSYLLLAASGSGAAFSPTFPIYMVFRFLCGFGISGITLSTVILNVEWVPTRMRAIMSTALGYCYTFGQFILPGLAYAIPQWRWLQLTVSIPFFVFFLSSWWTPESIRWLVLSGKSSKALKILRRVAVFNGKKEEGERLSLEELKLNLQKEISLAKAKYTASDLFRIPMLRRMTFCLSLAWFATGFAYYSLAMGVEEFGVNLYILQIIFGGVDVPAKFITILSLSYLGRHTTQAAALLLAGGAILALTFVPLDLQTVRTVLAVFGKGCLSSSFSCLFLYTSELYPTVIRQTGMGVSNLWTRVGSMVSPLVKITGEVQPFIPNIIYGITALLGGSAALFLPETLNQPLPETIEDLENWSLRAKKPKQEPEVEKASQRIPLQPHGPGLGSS

[2] = biological target: T2, Solute carrier family 22 member 2 (Homo sapiens, UniProt O15244); test: TP_TRANSPORTER: inhibition of TEA uptake in OCT2 expressing oocytes
T2 sequence (O15244 whole entry): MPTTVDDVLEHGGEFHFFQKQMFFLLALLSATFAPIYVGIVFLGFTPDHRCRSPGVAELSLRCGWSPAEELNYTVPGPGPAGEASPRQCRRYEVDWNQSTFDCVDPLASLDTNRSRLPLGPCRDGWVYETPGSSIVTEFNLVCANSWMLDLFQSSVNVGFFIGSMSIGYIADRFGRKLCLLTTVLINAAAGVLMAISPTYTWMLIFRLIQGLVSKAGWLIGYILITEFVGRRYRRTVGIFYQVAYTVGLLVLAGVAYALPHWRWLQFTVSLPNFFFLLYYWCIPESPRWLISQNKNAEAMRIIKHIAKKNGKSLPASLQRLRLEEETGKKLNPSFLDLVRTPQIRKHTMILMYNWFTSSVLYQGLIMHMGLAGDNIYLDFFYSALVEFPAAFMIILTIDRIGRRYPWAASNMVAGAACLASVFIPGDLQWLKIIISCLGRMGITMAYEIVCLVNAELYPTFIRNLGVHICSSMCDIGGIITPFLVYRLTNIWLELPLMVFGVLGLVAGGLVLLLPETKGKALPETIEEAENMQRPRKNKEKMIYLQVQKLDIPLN

| Structure (SMILES) | Ki [1] [µM] | Ki [2] [µM] |
| --- | --- | --- |
| CN/C(=N/CCSCc1nc[nH]c1C)NC#N [CIMETIDINE] | 53 | 57 |
| NC(N)=Nc1nc(CSCCC(N)=NS(N)(=O)=O)cs1 [FAMOTIDINE] | 300 | 1800 |
